Columns and labels:
[1] = molecular target: MAPK14 (UniProt Q16539)
[2] = molecular target: MAPK14 (UniProt Q16539); remark: listed apart in the source
[3] = molecular target: MAPK14 (UniProt Q16539); remark: listed apart in the source

Sequence of MAPK14 (Q16539 whole entry, looked up): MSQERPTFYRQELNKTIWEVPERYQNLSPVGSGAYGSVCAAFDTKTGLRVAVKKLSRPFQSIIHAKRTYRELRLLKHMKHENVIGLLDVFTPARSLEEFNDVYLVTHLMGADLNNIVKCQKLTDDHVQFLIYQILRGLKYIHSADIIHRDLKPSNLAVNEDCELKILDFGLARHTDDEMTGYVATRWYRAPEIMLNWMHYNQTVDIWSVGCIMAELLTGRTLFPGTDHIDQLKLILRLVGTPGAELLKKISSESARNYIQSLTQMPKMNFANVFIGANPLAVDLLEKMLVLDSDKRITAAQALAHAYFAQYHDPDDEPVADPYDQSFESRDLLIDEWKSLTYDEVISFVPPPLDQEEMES

| SMILES | IC50 [1] [µM] | IC50 [2] [µM] | IC50 [3] [µM] |
| --- | --- | --- | --- |
| Fc1ccc(-c2ncn(C3CCNCC3)c2-c2ccnc(Oc3ccccc3)c2)cc1 | < 50 | < 50 | < 50 |
| Fc1ccc(-c2ncn(C3CCNCC3)c2-c2ccnc(Oc3ccc(OCc4ccccc4)cc3)c2)cc1 | – | < 50 | – |
| Fc1ccc(Oc2nccc(-c3c(-c4ccc(F)cc4)ncn3CCCN3CCOCC3)n2)cc1 | < 50 | – | < 50 |
| Fc1ccc(-c2ncn(C3CCNCC3)c2-c2ccnc(Oc3ccc(Cl)cc3)c2)cc1 | – | < 50 | – |
| Cc1ccc(Oc2cc(-c3c(-c4ccc(F)cc4)ncn3C3CCNCC3)ccn2)cc1 | – | < 50 | – |
| Fc1ccc(Oc2cc(-c3c(-c4ccc(F)cc4)ncn3C3CCNCC3)ccn2)cc1 | < 50 | < 50 | < 50 |
| Fc1ccc(-c2ncn(C3CCNCC3)c2-c2ccnc(Sc3ccccc3)c2)cc1 | < 50 | < 50 | – |
| COc1ccc(Oc2cc(-c3c(-c4ccc(F)cc4)ncn3C3CCNCC3)ccn2)cc1 | < 50 | < 50 | < 50 |
| Cn1nnnc1Sc1cc(-c2c(-c3ccc(F)cc3)ncn2C2CCNCC2)ccn1 | < 50 | < 50 | < 50 |
| Fc1ccc(-c2ncn(CCCN3CCOCC3)c2-c2ccnc(Oc3ccccc3)n2)cc1 | – | < 50 | < 50 |
